Source: article PMC10041534, “Development of Fluorescent 4-[4-(3H-Spiro[isobenzofuran-1,4′-piperidin]-1′-yl)butyl]indolyl Derivatives as High-Affinity Probes to Enable the Study of σ Receptors via Fluorescence-Based Techniques” (Journal of Medicinal Chemistry, 2023)

Columns and labels:
[1] = target: T1, σ1 receptor (Cavia porcellus, UniProt Q60492); assay: σ1 receptor radioligand binding assay with (+)-[3H]pentazocine, guinea pig brain membranes; settings: mean of at least two experiments in duplicate, read-out: Ki ± SEM σ1
T1 construct: from tissue; host or cells: guinea pig brain without cerebellum (male Dunkin guinea pigs, Envigo)
T1 sequence (Q60492 whole entry): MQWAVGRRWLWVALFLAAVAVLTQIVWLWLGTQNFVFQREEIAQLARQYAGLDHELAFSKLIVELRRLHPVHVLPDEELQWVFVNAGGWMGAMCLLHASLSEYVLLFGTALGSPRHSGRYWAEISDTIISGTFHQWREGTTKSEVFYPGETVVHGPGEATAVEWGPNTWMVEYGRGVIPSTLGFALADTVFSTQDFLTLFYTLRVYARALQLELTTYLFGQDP
Experimental: (§1) All of the procedures for the binding assays were previously described. σ1 and σ2 receptor binding assays were carried out according to the literature.[25] […] Incubations were stopped by addition of 1 mL of ice-cold buffer [50 mM TRIS (pH 8.0)], and then the suspension was filtered through GF/B presoaked in 0.3% polyethylenimine (PEI) for at least 60 min prior to use. The filters were washed twice with 1 mL of ice-cold buffer. […] Incubations were stopped by addition of 1 mL of ice-cold buffer [50 mM TRIS (pH 8.0)], and then the suspension was filtered through GF/B presoaked in 0.5% polyethylenimine (PEI) for at least 60 min prior to use. The filters were washed twice with 1 mL of ice-cold buffer. […] Scatchard parameters (Kd and Bmax) and apparent inhibition constants (Ki) were determined by nonlinear curve fitting using GraphPad Prism (version 5.0).[64]

[2] = target: T2, σ2 receptor (Rattus norvegicus, UniProt Q5U3Y7); assay: σ2 receptor radioligand binding assay with [3H]DTG, rat liver membranes; settings: for Ki: [3H]DTG with 1 μM (+)-pentazocine, rat liver membranes, mean of at least two experiments in duplicate, read-out: Ki ± SEM σ2
T2 construct: from tissue; host or cells: rat liver (Wistar Hannover rats, Envigo)
T2 sequence (Q5U3Y7 1-176): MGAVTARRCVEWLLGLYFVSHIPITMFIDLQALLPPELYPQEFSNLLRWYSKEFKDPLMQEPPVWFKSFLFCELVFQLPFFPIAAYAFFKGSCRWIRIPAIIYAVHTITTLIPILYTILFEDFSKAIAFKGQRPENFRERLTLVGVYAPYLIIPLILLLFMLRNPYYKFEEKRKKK
Experimental: as §1

[3] = Fluorescence spectroscopy and quantum yield measurements; assay type: physicochemical; settings: CHCl3
[4] = test system: MCF7 cells; assay: Trypan blue assay; assay type: cell-based, human; settings: conditions of confocal microscopy, data not shown
[5] = test system: MCF7 cells; assay: Live cell imaging in MCF7 cells; assay type: cell-based, human; settings: live cell videos
[6] = RP-HPLC degradation study in PBS buffer; assay type: physicochemical; settings: 37 °C, RP-HPLC over 24 h
Experimental: page 12: Figure S10. RP-HPLC degradation study in buffer of compounds 19 (A) and 29 (B). Compounds were dissolved in a solution of PBS with 5% of DMSO. Then the solution was divided in 4 vials, one was used to study t0 and the other three were incubated at 37 °C for 2h, 6h and 24 h, respectively. […]

[7] = target: T3, σ2 receptor (Homo sapiens, UniProt Q5BJF2); assay: Flow cytometry saturation binding assay in MCF7 cells; settings: σ1 masked by (+)-pentazocine
T3 sequence (Q5BJF2 whole entry): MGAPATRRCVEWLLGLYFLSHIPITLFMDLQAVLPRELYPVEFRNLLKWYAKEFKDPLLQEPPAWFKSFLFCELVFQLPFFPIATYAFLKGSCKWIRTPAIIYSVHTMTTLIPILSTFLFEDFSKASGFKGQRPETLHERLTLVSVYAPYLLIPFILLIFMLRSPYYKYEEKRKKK
Experimental: Similarly, 2 × 10^5 MCF7 cells/well were seeded in a 12-well plate and allowed to recover for 24 h at 37 °C.
At the end of the incubation periods, cells were washed twice with PBS, detached with 200 mL of Cell Dissociation Solution (Sigma Chemical Co.) for 10 min at 37 °C, centrifuged at 13000g for 5 min, and resuspended in 500 mL of PBS. The fluorescence was recorded using a Bio-Guava easyCyte 5 Flow Cytometry System (Millipore, Billerica, MA), with a 530 nm band-pass filter. For each analysis, 50000 events were collected and analyzed with the InCyte software (Millipore).

[8] = target: T3, σ2 receptor; assay: Flow cytometry studies in MCF7 and MCF7KO cells; assay type: cell-based; set-up: This cell line was selected on the basis of its high σ2 receptor expression levels; endogenous in cells; host or cells: MCF7 (and MCF7KO, partial TMEM97 knockdown by shRNA); settings: for accumulation (mean fluorescence intensity) in MCF7 and MCF7KO cells: 10 nM-10 μM, 45 min, σ1 masked with 10 μM (+)-pentazocine; for signal in MCF7KO cells compared with MCF7 cells: flow cytometry, σ2 receptor partially silenced
Experimental: Subsequently, the cells were harvested by trypsinization and resuspended in 250 μL of FACS-PBS. The fluorescence intensity was measured by flow cytometry using a BD LSRFortessaTM X-20 cell analyzer (Becton Dickinson, Palo Alto, CA). For this, in total 20000 cells per sample were evaluated. The results were analyzed and quantified using BD FACSDivaTM software.

[9] = target: T3, σ2 receptor; assay: Confocal microscopy, co-localization with σ2 receptor (TMEM97 ab) in fixed MCF7 cells; assay type: cell-based; set-up: This cell line was selected on the basis of its high σ2 receptor expression levels; endogenous in cells; host or cells: MCF7 (and MCF7KO, partial TMEM97 knockdown by shRNA); settings: 5 μM, 1 h
Experimental: Subsequently, the cells were treated with the indicated concentrations of 19 or 29 for 1 h at 37 °C. Then, the cells were washed once with PBS, harvested by trypsinization, and resuspended in 1 mL of PBS. Then, the cell preparation for confocal microscopy by using Cytospin was carried out as described by Koh et al.,[75] followed by cell fixation with 4% paraformaldehyde at room temperature for 30 min. For the staining of σ2 receptor expression, cells were permeabilized and blocked with 0.5% Triton X-100 and 1% BSA, respectively, in PBS for 30 min at room temperature followed by incubation of the primary TMEM97 antibody (diluted 1:200 in 1% BSA/0.3% Triton-PBS, Novusbio, catalog no. NBP1-30436) overnight at 4 °C in a wet chamber. The next day, the cells were washed three times with PBS and incubated with a 1:500 dilution of a secondary anti-rabbit AlexaFluor488-labeled antibody (Invitrogen, catalog no. A-11034) for 1 h at room temperature in a wet chamber. After being washed twice with PBS, the cells were incubated with a solution containing DAPI (2.5 μg/mL, D9542) for 15 min at room temperature, followed by three washes with PBS as well as ddH2O and embedding with Vectashield (Vectashield Antifade Mounting Media, Vector Laboratories, caalog no. H-1000-10). […]

[10] = target: T3, σ2 receptor; assay: Spinning disk confocal microscopy on living MCF7 cells; assay type: cell-based; set-up: This cell line was selected on the basis of its high σ2 receptor expression levels; endogenous in cells; host or cells: MCF7 (and MCF7KO, partial TMEM97 knockdown by shRNA); settings: for subcellular localization in living MCF7 cells: 0.05 μM, 30 min; for mitochondrial localization upon co-treatment with nonfluorescent DTG: 20 μM DTG
Experimental: MCF7 cells (2.4 × 10^4 cells/well) were seeded on IBIDI slides (coated with polymers, Science Services) and incubated at 37 °C with 5% CO2 for 48 h. Afterward, ProlongLife (Invitrogen, catalog no. P36974) was added in a 1:100 dilution to the cells and incubated for 1 h. Subsequently, the medium was removed, and the cells were stained with 250 nM MitoTracker-Bodipy FL (Invitrogen, catalog no. P36974) in phenol red-free medium for 30 min at 37 °C with 5% CO2. […] In addition, Hoechst 33342 (0.05 μM) was added 15 min prior to measurement to counterstain for nuclei. Finally, z-stacks of the living cells were performed using an Olympus IXplore SpinSR spinning disk confocal microscope. In total, three pictures per spot were obtained. The Cy-5 intensities of the ligands based on the localization of the GFP- signal of the mitochondria were calculated by the commercially available software cellSens from Olympus. Statistical analysis was performed using GraphPad Prism (version 8).

[11] = target: T4, σ1 receptor (Homo sapiens, UniProt Q99720); assay: Flow cytometry studies in MCF7σ1 cells; assay type: cell-based
T4 construct: expressed in transfected cells
T4 sequence (Q99720 whole entry, species assumed): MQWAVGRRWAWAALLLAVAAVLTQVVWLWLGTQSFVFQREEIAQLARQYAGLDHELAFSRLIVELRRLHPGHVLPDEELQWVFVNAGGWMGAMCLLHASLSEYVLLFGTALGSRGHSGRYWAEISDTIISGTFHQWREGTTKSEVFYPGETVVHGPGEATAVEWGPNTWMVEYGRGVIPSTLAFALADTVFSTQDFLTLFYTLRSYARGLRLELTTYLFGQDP

[12] = DTG (20 μM) as non-fluorescent σ2 reference ligand
[13] = compound 2 (10 μM) as non-fluorescent σ2 reference ligand

Compound	Ki [1]	Ki [2]	σ2 selectivity over σ1 ([2]; from Ki values at σ1 and σ2)	quantum yield [3]	λem [3]	λex [3]	cytotoxicity [4]	entry into living MCF7 cells [5]	stability [6]	Kd [7, 12]	Kd [7, 13]	accumulation (mean fluorescence intensity) in MCF7 and MCF7KO cells [8]	signal in MCF7KO cells compared with MCF7 cells [8]	subcellular localization versus σ2 receptor distribution (TMEM97ab) [9]	subcellular localization in living MCF7 cells [10]	mitochondrial localization upon co-treatment with nonfluorescent DTG [10]	uptake in MCF7σ1 cells upon administration of (+)-pentazocine ([11]; σ2 masked with 2 (10 μM), (+)-pentazocine 10 μM)	fluorescent signal in MCF7σ1 cells ([11]; σ2 receptor masked with 10 μM compound 2)
C[N+]1=C(/C=C/C=C/C=C2/N(CCCCCC(=O)Nc3ccc4ccn(CCCCN5CCC6(CC5)OCc5ccccc56)c4c3)c3ccccc3C2(C)C)C(C)(C)c2ccccc21.[I-] [Compound 29, 2-[(1E,3E)-5-{(Z)-1-[6-({1-[4-(3H-Spiro[isobenzofuran-1,4′-piperidin]-1′-yl)butyl]-1H-indol-6-yl}amino)-6-oxohexyl]-3,3-dimethylindolin-2-ylidene}penta-1,3-dien-1-yl]-1,3,3-trimethyl-3H-indol-1-ium]	448 ± 80 nM	51.1 ± 5.1 nM	~10 fold	47.83%	678 nm	657 nm	neither 19 nor 29 was cytotoxic	rapid entry	stability of the two compounds was demonstrated	18.7 nM	13.8 nM	dose-dependent manner	visibly weaker	overlapped with the σ2 receptor distribution	mitochondrial localization	significantly reduced	–	–
C[N+]1=C(/C=C/C=C/C=C2\N(CCCCCC(=O)NCCCCCCn3cc(CCCCN4CCC5(CC4)OCc4ccccc45)c4ccccc43)c3ccccc3C2(C)C)C(C)(C)c2ccccc21.[I-] [Compound 19, 2-{(1E,3E)-5-[(E)-1-{6-[(6-{3-[4-(3H-Spiro[isobenzofuran-1,4′-piperidin]-1′-yl)butyl]-1H-indol-1-yl}hexyl)amino]-6-oxohexyl}-3,3-dimethylindolin-2-ylidene]penta-1,3-dien-1-yl}-1,3,3-trimethyl-3H-indol-1-ium]	51.3 ± 3.2 nM	30.2 ± 3.5 nM	–	52.86%	678 nm	657 nm	neither 19 nor 29 was cytotoxic	rapid entry	stability of the two compounds was demonstrated	13.6 nM	19.3 nM	dose-dependent manner	visibly weaker	overlapped with the σ2 receptor distribution	mitochondrial localization	significantly reduced	abated	dose-dependent increase
